# Like-named read-outs stand apart in the source and are kept apart here.
# Legend:
# [1] = Evaluation of in vivo pharmacokinetics (blood and brain concentrations, LC-MS/MS); conditions: male, rat, SD rats, brain
# Description: Pharmacological test example 4: Evaluation of in vivo pharmacokinetics
# To SD rats (male, 7 weeks old), the test compound was orally administered (p. o.) at an amount of 50 mg/kg bw or intravenously administered (i.v.) at an amount of 1 mg/kg bw and the concentrations in the blood and brain were measured up to 3 hours. The administration vehicle was an 80% PEG 400 aqueous solution. The blood was collected under isoflurane inhalational anesthesia and the brain was harvested after the rats were sacrificed. The plasma was separated from the blood. The brain was homogenized after addition of a three-fold volume of PBS and then methanol was added thereto. Thus the prepared test samples were subjected to measurement. The measurement was performed by LC-MS/MS (Applied Biosystems and Waters).
# The blood concentration changes of the compounds of Example 2 and Example 2 (2) ((1E,6E)-1-(1H-indol-6-yl)-7-[2-methoxy-4-(2-pyridylmethoxy)phenyl]hepta-1,6-diene-3,5-dione) after oral administration (p.o.) thereof are shown in FIG. 2. The brain concentration changes of the compounds after intravenous administration (i.v.) and oral administration (p.o.) thereof are shown in Table 2.
# [2] = target: recombinant three-repeat microtubule-binding domain (3R-MBD) of tau protein (Homo sapiens, UniProt P10636); assay: Determination of tau aggregation inhibitory activity (heparin-induced, thioflavin T fluorescence; electron microscope); type: biochemical; conditions: for IC50: 3R-MBD tau 10 μM, heparin 10 μM, 37° C. for 16 hours, thioflavin T, read-out: IC50 (μM) Test example 1 (tau aggregation inhibitory activity); for tau aggregation inhibitory activity at 1 μM: compound at 1 μM
# Description: Pharmacological Test Example 1: Determination of Tau Aggregation Inhibitory Activity
# A recombinant three-repeat microtubule-binding domain (3R-MBD) of tau protein was expressed in E. coli and was purified and used for the experiment. The purified tau solution was diluted with a 50 mM Tris-HCl buffer (pH 7.6) to a final concentration of 10 μM. The test compounds were prepared using dimethylsulfoxide (DMSO) at 20-fold of their final concentrations and added to the plate so that the DMSO concentration would be 5%. Heparin was added to the plate so that the final concentration would be 10 μM and the plate was left to stand at 37° C. for 16 hours. Thioflavin T was added to the plate so that the concentration would be 10 μM and the fluorescence intensity was measured with a fluorescence plate reader (PerkinElmer, Inc.) (excitation wavelength: 440 nm; emission wavelength: 480 nm).
# (§1) The final concentration of each compound at the time of measurement was set at 0.1, 0.3, 1, 3, and 10 μM. The sample to which only DMSO was added was used as a negative control and its fluorescence intensity was taken as 0% inhibitory activity.
# The samples were placed on a grid and washed with distilled water. A 1 mM phosphotungstic acid aqueous solution was added to the samples. The samples were washed, dried overnight, and observed.
# [3] = target: T1, recombinant human β-secretase (Homo sapiens, UniProt P56817); assay: Determination of β-secretase inhibitory activity (BACE-1 FRET assay Kit); type: biochemical; conditions: for IC50: recombinant human β-secretase, fluorescent substrate peptide, 1 hour, read-out: IC50 (μM) Test example 2 (β-secretase inhibitory activity); for inhibition at 1 µM: compound at 1 μM
# T1 construct: purchased Invitrogen
# Description: Pharmacological Test Example 2: Determination of β-Secretase Inhibitory Activity
# The β-secretase inhibitory activity was measured with BACE-1 FRET assay Kit (Invitrogen). The test compounds were prepared using DMSO at 30-fold of their final concentrations and dissolved so that the DMSO concentration would be 10%. To each of the solutions, an equal volume of a recombinant human β-secretase (1 U/mL) dissolved in the assay buffer and an equal volume of fluorescent substrate peptide (2.5 nM) were added and the solutions were left to stand for 1 hour. The fluorescence intensity was measured with a fluorescence plate reader (excitation wavelength: 545 nm; emission wavelength: 590 nm).
# The final concentration of each compound at the time of measurement was set at 0.1, 0.3, 1, 3, and 10 μM, at 0.3, 1, 3, 10, and 30 μM, or at 1, 3, 10, 30, and 100 μM.
# Aβ 1-42 = target: T2, Aβ 1-42 (Homo sapiens, UniProt P05067); assay: Determination of Aβ aggregation inhibitory activity (thioflavin T fluorescence); type: biochemical; conditions: for IC50: Aβ 1-42, 37° C. for 24 hours, thioflavin T, read-out: IC50 (μM) Test example 3 (Aβ aggregation inhibitory activity)
# T2 construct: Aβ 1-42 (Peptide Institute, Inc.) was dissolved in 0.3% ammonia water; purchased Peptide Institute, Inc
# Description: Pharmacological test example 3: Determination of Aβ aggregation inhibitory activity
# Aβ 1-42 (Peptide Institute, Inc.) was dissolved in 0.3% ammonia water so that the concentration would be 0.5 mM and then diluted with PBS to 20 μM. The test compounds were prepared using DMSO at 100-fold of their final concentrations and adjusted so that the DMSO concentration would be 2%. The Aβ solution and each of the test compound solutions were mixed at an equivalent ratio and the mixtures were incubated at 37° C. for 24 hours. To each of the mixtures, an equal volume of a thioflavin T solution adjusted with a 100 mM Tris-glycine buffer (pH 8.5) to 6 μM was added. The fluorescence intensity was measured with a fluorescence plate reader (excitation wavelength: 440 nm; emission wavelength: 480 nm).
# as §1
# T2 sequence (P05067 672-713): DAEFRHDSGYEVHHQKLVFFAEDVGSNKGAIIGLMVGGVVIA
# recombinant three-repeat microtubule-binding domain (3R-MBD) of tau protein, sequence (P10636 186-279 isoform P10636-2 limits assumed): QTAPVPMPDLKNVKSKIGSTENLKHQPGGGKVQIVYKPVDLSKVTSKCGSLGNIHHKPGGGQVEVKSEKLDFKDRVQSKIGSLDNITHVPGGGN
# T1 sequence (P56817 46-501): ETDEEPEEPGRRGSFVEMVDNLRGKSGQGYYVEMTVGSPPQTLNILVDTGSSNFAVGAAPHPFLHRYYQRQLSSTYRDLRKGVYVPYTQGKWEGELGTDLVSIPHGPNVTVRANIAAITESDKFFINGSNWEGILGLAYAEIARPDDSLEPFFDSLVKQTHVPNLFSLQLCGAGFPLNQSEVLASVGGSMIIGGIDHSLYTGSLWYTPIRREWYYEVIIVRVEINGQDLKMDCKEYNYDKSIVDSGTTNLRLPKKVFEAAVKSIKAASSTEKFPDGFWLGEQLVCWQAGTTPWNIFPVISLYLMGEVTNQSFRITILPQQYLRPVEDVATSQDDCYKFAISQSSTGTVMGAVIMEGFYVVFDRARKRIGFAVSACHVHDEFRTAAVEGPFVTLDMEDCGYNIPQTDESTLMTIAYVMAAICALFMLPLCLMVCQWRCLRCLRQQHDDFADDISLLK
"concentration at 5 min ([1]; intravenous 1 mg/kg bw, 5 min, read-out: brain concentration i.v. 5 min)","concentration at 180 min ([1]; intravenous 1 mg/kg bw, read-out: brain concentration i.v. 180 min)","concentration at 60 min ([1]; oral 50 mg/kg bw, 60 min, read-out: brain concentration p.o. 60 min)","concentration at 180 min ([1]; oral 50 mg/kg bw, read-out: brain concentration p.o. 180 min)",IC50 [2],IC50 [3],IC50 (Aβ 1-42),melting point,tau aggregation inhibitory activity at 1 μM [2],inhibition at 1 µM [3],inhibition at 3 µM (Aβ 1-42; compound at 3 μM),SMILES
5.15 ± 3.34 ng/mL,0.93 ± 0.67 ng/mL,0 ng/mL,18 ± 30.8 ng/mL,,,,,,,,"COc1cc(OCc2ccccn2)ccc1/C=C/C(=O)CC(=O)/C=C/c1ccc2cc[nH]c2c1 [Example 2 (2), (1E,6E)-1-(1H-indol-6-yl)-7-[2-methoxy-4-(2-pyridylmethoxy)phenyl]hepta-1,6-diene-3,5-dione]"
,,,,1.04 µM,3.99 µM,4.43 µM,229 to 237 °C,,,,"COc1cc(OCc2nccs2)ccc1/C=C/c1cc(/C=C/c2ccc3cc[nH]c3c2)[nH]n1 [Example 82, 3-[(1E)-2-(1H-indol-6-yl)ethenyl]-5-[(1E)-2-[2-methoxy-4-(1,3-thiazol-2-ylmethoxy)phenyl]ethenyl]-1H-pyrazole]"
,,,,0.85 µM,22.7 µM,> 10 µM,153 to 155 °C,,,,"COc1cc(OCc2ccccn2)ccc1/C=C/c1cc(/C=C/c2ccc3c(c2)OCCO3)[nH]n1 [Example 83, 3-[(1E)-2-(1,4-benzodioxan-6-yl)ethenyl]-5-[(1E)-2-[2-methoxy-4-(2-pyridylmethoxy)phenyl]ethenyl]-1H-pyrazole]"
,,,,1.29 µM,1.25 µM,3.27 µM,96 to 99 °C,,,,"CCN(CC)c1ccc(/C=C/c2cc(/C=C/c3ccc4cc[nH]c4c3)[nH]n2)c(OCCN2CCOCC2)c1 [Example 98, 3-[(1E)-2-[4-diethylamino-2-(2-morpholinoethoxy)phenyl]ethenyl]-5-[(1E)-2-(1H-indol-6-yl)ethenyl]-1H-pyrazole]"
,,,,1.46 µM,1.06 µM,4.33 µM,192 to 198 °C,,,,"CN1CCN(c2ccc(/C=C/c3cc(/C=C/c4ccc5cc[nH]c5c4)[nH]n3)cc2)CC1 [Example 102, 5-[(1E)-2-(1H-indol-6-yl)ethenyl]-3-[(1E)-2-[4-(4-methylpiperazin-1-yl)phenyl]ethenyl]-1H-pyrazole]"
,,,,,,1.9 µM,195 to 197 °C,0%,12%,,"COc1cc(OCc2ccccn2)ccc1/C=C/c1cc(/C=C/c2ccc(OCc3ccccn3)cc2OC)[nH]n1 [Example 110, 3,5-bis[(1E)-2-[2-methoxy-4-(2-pyridylmethoxy)phenyl]ethenyl]-1H-pyrazole]"
,,,,1.46 µM,2.89 µM,5.05 µM,123 to 126 °C,,,,"COc1cc(OCc2ccccn2)ccc1/C=C/c1cc(/C=C/c2ccc(O)c(N)c2)[nH]n1 [Example 111, 3-[(1E)-2-[2-methoxy-4-(2-pyridylmethoxy)phenyl]ethenyl]-5-[(1E)-2-(3-amino-4-hydroxy-phenyl)ethenyl]-1H-pyrazole]"
,,,,,,2.8 µM,289 to 291 °C,24%,30%,17%,"C(=C\c1cc(/C=C/c2ccc3cc[nH]c3c2)[nH]n1)/c1ccc2cc[nH]c2c1 [Example 112, 3,5-bis[(1E)-2-(1H-indol-6-yl)ethenyl]-1H-pyrazole]"
